ChEMBL document CHEMBL3991601, “The target landscape of clinical kinase drugs” (Science, 2017)
Calls of active or inactive are those of the source.

Experiments:
[1] = biological target: TRAF2 and NCK-interacting protein kinase (Homo sapiens, UniProt Q9UKE5)
[2] = biological target: Adenylate kinase 2, mitochondrial (Homo sapiens, UniProt P54819)
[3] = biological target: T1, Serine/threonine-protein kinase Nek2 (Homo sapiens, UniProt P51955)
T1 sequence (P51955 whole entry): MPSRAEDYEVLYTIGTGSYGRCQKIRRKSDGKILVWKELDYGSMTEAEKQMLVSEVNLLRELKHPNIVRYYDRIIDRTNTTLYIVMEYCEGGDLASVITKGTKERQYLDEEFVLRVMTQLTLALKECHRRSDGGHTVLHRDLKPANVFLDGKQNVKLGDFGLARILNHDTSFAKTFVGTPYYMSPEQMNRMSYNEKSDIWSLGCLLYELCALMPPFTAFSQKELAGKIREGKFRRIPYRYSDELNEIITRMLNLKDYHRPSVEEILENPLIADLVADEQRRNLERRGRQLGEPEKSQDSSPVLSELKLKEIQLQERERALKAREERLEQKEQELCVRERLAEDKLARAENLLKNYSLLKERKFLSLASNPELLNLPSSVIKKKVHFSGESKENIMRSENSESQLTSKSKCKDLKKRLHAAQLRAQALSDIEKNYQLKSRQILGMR

[4] = biological target: Inosine-5'-monophosphate dehydrogenase 2 (Homo sapiens, UniProt P12268)
Ephrin type-A receptor 5 = Ephrin type-A receptor 5 (Homo sapiens, UniProt P54756)
[5] = biological target: T2, Serine/threonine-protein kinase Nek1 (Homo sapiens, UniProt Q96PY6)
T2 sequence (Q96PY6 whole entry): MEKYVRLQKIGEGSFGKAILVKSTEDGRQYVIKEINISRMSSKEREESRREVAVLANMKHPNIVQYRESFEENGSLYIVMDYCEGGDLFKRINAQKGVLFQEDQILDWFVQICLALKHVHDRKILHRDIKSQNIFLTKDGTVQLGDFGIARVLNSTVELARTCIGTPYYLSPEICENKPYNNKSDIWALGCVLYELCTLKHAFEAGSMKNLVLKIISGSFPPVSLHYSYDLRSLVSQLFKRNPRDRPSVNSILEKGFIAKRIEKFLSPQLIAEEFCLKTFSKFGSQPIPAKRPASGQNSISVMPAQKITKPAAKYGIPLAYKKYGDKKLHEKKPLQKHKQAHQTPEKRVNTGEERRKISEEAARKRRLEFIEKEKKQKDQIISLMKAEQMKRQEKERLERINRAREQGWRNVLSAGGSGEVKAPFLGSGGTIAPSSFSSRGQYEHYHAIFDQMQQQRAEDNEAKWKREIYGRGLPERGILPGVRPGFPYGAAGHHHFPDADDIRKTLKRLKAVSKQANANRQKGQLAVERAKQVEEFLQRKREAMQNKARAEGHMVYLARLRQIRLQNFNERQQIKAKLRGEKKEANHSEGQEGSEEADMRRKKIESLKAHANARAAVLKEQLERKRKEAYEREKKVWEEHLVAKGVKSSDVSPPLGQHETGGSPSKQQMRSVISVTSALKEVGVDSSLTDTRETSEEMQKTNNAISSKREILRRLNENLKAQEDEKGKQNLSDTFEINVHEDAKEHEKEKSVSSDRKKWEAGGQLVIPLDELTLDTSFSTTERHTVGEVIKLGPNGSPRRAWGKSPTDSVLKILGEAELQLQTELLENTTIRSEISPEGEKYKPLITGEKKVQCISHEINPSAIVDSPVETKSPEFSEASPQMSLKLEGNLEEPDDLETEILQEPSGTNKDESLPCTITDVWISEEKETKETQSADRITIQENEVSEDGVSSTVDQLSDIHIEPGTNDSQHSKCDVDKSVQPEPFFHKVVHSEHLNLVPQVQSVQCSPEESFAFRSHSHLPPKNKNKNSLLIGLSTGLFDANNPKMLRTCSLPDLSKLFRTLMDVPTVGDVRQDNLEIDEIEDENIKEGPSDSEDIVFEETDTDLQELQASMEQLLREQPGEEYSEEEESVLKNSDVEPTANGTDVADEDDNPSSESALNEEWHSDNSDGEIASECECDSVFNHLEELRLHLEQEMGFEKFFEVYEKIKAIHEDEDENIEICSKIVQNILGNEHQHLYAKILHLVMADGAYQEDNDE

[6] = biological target: Ribosomal protein S6 kinase beta-1 (Homo sapiens, UniProt P23443)
Septin-9 = biological target: T3, Septin-9 (Homo sapiens, UniProt Q9UHD8)
T3 sequence (Q9UHD8 whole entry): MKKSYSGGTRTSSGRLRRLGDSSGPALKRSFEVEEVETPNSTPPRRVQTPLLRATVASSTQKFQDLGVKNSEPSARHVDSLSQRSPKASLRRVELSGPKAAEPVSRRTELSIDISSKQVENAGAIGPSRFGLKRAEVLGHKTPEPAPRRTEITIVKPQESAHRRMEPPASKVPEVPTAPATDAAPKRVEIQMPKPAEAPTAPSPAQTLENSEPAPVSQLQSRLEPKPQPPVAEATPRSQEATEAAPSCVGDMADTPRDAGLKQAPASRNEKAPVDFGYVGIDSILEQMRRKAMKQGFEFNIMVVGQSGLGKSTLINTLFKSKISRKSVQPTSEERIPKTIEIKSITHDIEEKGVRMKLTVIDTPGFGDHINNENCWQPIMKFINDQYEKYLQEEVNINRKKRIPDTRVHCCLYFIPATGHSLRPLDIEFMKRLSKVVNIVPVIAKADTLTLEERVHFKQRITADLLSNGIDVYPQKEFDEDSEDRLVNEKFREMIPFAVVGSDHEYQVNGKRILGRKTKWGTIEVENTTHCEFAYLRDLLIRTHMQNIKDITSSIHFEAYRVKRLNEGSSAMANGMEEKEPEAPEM

Ephrin type-A receptor 7 = Ephrin type-A receptor 7 (Homo sapiens, UniProt Q15375)
[7] = biological target: Receptor-interacting serine/threonine-protein kinase 3 (Homo sapiens, UniProt Q9Y572)
[8] = biological target: Chromodomain-helicase-DNA-binding protein 4 (Homo sapiens, UniProt Q14839)
Adenosine kinase = Adenosine kinase (Homo sapiens, UniProt P55263)
[9] = biological target: Serine/threonine-protein kinase PAK 2 (Homo sapiens, UniProt Q13177)
[10] = biological target: Dual specificity mitogen-activated protein kinase kinase 1 (Homo sapiens, UniProt Q02750)
Note: in the data inactive means no Kd found up to 30 µM.

Dual specificity mitogen-activated protein kinase kinase 1, sequence (Q02750 whole entry): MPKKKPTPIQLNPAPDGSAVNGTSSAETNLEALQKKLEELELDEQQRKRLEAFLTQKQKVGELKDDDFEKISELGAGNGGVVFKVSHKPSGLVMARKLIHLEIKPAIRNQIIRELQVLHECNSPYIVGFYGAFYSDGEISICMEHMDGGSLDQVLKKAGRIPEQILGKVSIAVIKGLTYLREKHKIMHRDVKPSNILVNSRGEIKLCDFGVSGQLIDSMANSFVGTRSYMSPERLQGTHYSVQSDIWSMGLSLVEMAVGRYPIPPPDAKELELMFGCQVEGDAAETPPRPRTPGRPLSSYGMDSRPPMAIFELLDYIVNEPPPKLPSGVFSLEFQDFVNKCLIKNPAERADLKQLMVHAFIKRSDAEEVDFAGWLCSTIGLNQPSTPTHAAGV
Ephrin type-A receptor 5, sequence (P54756 whole entry): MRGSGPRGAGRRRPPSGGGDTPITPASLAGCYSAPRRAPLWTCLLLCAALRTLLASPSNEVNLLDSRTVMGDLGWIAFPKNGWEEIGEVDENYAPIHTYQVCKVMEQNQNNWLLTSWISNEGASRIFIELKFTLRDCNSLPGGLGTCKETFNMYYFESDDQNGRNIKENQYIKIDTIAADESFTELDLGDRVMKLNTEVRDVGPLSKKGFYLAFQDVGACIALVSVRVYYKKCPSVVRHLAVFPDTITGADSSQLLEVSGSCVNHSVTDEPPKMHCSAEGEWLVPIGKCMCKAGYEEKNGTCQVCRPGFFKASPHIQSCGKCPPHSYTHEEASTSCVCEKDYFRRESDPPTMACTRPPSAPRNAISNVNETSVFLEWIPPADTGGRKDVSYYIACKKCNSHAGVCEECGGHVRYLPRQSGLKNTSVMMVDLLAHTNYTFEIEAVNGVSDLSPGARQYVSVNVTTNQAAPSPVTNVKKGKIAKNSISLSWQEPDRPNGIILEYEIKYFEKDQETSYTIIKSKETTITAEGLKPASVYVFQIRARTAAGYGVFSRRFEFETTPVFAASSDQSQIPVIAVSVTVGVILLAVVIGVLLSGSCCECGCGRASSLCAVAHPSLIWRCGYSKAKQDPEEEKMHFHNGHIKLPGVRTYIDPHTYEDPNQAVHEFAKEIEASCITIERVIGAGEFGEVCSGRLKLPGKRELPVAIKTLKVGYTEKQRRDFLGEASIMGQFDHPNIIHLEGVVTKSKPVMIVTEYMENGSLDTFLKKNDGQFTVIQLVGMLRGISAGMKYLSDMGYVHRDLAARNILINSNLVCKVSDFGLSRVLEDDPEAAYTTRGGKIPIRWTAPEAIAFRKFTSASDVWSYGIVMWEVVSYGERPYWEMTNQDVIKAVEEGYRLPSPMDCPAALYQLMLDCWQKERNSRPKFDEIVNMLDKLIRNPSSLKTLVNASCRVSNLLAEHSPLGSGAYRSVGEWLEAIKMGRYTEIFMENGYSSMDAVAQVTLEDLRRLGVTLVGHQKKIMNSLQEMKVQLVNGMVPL
Ribosomal protein S6 kinase beta-1, sequence (P23443 whole entry): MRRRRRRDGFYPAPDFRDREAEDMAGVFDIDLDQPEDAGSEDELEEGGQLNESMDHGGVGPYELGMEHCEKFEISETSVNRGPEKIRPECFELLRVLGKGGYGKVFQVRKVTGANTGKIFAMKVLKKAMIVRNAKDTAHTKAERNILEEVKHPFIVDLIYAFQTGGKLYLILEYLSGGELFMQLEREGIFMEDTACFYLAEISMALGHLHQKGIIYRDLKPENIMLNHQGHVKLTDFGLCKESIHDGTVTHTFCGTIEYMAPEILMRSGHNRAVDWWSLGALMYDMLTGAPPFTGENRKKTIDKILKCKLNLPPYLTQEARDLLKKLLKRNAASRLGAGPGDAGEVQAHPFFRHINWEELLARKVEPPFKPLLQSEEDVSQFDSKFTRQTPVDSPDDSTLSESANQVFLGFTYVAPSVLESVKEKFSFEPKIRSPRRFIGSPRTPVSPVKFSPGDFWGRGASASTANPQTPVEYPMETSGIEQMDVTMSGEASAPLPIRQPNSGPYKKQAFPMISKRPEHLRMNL
Serine/threonine-protein kinase PAK 2, sequence (Q13177 whole entry): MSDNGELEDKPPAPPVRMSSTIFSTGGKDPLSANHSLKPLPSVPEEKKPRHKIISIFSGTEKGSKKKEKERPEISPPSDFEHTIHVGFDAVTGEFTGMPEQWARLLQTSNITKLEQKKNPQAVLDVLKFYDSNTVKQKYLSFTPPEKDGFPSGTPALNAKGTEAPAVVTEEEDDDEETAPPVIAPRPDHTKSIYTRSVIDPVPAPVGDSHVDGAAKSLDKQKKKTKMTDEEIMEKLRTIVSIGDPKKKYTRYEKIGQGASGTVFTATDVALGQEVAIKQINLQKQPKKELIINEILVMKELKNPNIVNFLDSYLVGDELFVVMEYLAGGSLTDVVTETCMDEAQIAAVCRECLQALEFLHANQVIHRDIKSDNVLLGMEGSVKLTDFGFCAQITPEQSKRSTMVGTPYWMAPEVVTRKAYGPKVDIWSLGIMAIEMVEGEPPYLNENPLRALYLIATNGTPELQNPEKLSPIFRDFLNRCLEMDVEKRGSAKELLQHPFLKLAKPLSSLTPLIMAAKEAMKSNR
Chromodomain-helicase-DNA-binding protein 4, sequence (Q14839 whole entry): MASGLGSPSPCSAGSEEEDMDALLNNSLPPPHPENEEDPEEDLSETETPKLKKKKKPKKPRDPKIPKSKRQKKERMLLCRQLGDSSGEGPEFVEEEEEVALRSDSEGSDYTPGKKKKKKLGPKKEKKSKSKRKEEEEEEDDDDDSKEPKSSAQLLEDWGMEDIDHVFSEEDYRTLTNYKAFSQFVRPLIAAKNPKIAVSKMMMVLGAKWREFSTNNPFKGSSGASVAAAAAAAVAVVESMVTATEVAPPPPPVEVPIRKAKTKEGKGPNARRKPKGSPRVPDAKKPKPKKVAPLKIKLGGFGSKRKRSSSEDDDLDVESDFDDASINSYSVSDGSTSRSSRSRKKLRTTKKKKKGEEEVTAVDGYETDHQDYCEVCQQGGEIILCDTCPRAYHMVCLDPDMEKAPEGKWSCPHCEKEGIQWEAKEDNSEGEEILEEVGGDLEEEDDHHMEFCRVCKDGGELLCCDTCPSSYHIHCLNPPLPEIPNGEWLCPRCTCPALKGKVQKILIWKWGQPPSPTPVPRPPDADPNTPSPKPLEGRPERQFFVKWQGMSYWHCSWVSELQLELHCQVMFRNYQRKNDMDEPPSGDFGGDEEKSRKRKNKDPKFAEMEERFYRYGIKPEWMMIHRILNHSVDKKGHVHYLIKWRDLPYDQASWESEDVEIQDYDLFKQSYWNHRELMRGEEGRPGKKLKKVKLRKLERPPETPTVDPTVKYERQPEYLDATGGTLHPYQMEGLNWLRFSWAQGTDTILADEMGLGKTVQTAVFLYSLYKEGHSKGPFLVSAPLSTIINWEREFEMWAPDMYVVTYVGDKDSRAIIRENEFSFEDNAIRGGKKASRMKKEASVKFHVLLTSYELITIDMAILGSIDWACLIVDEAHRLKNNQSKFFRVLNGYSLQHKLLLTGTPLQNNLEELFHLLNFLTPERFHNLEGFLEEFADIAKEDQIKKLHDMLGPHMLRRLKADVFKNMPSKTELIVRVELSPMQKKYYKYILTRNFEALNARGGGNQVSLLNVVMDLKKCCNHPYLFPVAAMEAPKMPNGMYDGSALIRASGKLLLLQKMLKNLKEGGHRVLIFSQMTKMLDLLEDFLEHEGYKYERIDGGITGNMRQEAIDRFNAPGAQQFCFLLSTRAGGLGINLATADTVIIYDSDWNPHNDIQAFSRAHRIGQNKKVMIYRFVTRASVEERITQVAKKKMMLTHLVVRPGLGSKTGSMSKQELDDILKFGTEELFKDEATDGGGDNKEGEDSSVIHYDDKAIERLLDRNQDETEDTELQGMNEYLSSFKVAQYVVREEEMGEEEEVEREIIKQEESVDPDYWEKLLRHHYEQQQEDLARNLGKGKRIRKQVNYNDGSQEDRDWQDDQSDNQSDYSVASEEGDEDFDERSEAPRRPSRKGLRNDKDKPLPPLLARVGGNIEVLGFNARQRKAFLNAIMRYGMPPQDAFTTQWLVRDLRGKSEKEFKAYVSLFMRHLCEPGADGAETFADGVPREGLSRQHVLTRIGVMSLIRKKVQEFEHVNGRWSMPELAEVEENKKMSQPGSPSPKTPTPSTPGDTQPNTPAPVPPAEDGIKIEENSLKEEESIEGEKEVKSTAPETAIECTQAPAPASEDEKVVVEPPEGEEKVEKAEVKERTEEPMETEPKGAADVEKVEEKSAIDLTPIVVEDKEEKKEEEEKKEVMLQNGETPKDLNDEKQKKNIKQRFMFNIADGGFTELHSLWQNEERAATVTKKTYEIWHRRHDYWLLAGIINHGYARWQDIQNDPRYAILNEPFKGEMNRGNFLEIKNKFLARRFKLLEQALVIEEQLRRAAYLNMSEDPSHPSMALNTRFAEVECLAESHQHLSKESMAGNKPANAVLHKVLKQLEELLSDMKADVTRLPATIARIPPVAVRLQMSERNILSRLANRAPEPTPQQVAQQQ
Adenosine kinase, sequence (P55263 whole entry): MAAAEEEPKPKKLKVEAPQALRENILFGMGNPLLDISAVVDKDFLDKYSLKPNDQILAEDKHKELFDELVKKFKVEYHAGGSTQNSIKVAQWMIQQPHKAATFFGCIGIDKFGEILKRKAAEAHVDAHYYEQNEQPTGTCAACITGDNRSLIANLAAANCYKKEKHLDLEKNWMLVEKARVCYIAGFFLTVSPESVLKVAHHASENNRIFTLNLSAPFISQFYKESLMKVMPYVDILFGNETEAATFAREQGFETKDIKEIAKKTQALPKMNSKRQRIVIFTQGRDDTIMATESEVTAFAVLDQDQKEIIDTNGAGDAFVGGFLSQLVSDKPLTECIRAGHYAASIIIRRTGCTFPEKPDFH

Structure (SMILES)	Kd [1]	Kd [2]	Kd [3]	Kd [4]	Kd (Ephrin type-A receptor 5)	Kd [5]	Kd [6]	Kd (Septin-9)	Kd (Ephrin type-A receptor 7)	Kd [7]	Kd [8]	Kd (Adenosine kinase)	Kd [9]	Kd [10]
CCNC(=O)C#Cc1ccc2c(c1)NC(=O)/C2=C(\Nc1ccc(CN(C)C)cc1)c1ccccc1	> 30 µM (inactive)	> 30 µM (inactive)	> 30 µM (inactive)	> 30 µM (inactive)	> 30 µM (inactive)	> 30 µM (inactive)	> 30 µM (inactive)	> 30 µM (inactive)	> 30 µM (inactive)	> 30 µM (inactive)	> 30 µM (inactive)	> 30 µM (inactive)	> 30 µM (inactive)	
C=CC(=O)N1CCC[C@H](n2c(=O)n(-c3ccc(Oc4ccccc4)cc3)c3c(N)ncnc32)C1	> 30 µM (inactive)	> 30 µM (inactive)	> 30 µM (inactive)	> 30 µM (inactive)	> 30 µM (inactive)	> 30 µM (inactive)	> 30 µM (inactive)	> 30 µM (inactive)	> 30 µM (inactive)	> 30 µM (inactive)		> 30 µM (inactive)		> 30 µM (inactive)
NC(=O)Nc1cc(-c2cccc(F)c2)sc1C(=O)N[C@H]1CCCNC1 [AZD-7762]	0.094 µM (active)	> 30 µM (inactive)	> 30 µM (inactive)	> 30 µM (inactive)	> 30 µM (inactive)	> 30 µM (inactive)	> 30 µM (inactive)	> 30 µM (inactive)	> 30 µM (inactive)	> 30 µM (inactive)	> 30 µM (inactive)	> 30 µM (inactive)		2.04 µM (active)
C#Cc1cccc(Nc2ncnc3cc(OC)c(OCCCCCCC(=O)NO)cc23)c1 [CUDC-101]	> 30 µM (inactive)	1.04 µM (active)	> 30 µM (inactive)	> 30 µM (inactive)	> 30 µM (inactive)	> 30 µM (inactive)	> 30 µM (inactive)	> 30 µM (inactive)		> 30 µM (inactive)	> 30 µM (inactive)	> 30 µM (inactive)	> 30 µM (inactive)	> 30 µM (inactive)
CNC(=O)c1nn(C)c2c1C(C)(C)Cc1cnc(Nc3ccc(N4CCN(C)CC4)cc3)nc1-2 [MILCICLIB]		> 30 µM (inactive)	> 30 µM (inactive)		0.147 µM (active)	> 30 µM (inactive)	> 30 µM (inactive)	> 30 µM (inactive)	> 30 µM (inactive)	> 30 µM (inactive)		> 30 µM (inactive)	> 30 µM (inactive)	> 30 µM (inactive)
CCOc1cc2ncc(C#N)c(Nc3ccc(F)c(Cl)c3)c2cc1NC(=O)/C=C/CN(C)C [PELITINIB]		> 30 µM (inactive)		> 30 µM (inactive)	> 30 µM (inactive)		> 30 µM (inactive)	> 30 µM (inactive)	> 30 µM (inactive)	> 30 µM (inactive)	> 30 µM (inactive)	> 30 µM (inactive)	> 30 µM (inactive)	8.77 µM (active)
CNC(=O)c1cc(Oc2ccc(NC(=O)Nc3cc(C(C)(C)C)nn3-c3ccc4ncccc4c3)c(F)c2)ccn1 [REBASTINIB]	1.88 µM (active)	> 30 µM (inactive)	> 30 µM (inactive)	> 30 µM (inactive)	> 30 µM (inactive)	> 30 µM (inactive)	> 30 µM (inactive)	> 30 µM (inactive)		1.28 µM (active)	> 30 µM (inactive)	> 30 µM (inactive)	> 30 µM (inactive)	> 30 µM (inactive)
CO[C@H]1C[C@@H]2CC[C@@H](C)[C@@](O)(O2)C(=O)C(=O)N2CCCC[C@H]2C(=O)O[C@H]([C@H](C)C[C@@H]2CC[C@@H](OP(C)(C)=O)[C@H](OC)C2)CC(=O)[C@H](C)/C=C(\C)[C@@H](O)[C@@H](OC)C(=O)[C@H](C)C[C@H](C)/C=C/C=C/C=C/1C [RIDAFOROLIMUS]	> 30 µM (inactive)	> 30 µM (inactive)	> 30 µM (inactive)	> 30 µM (inactive)	> 30 µM (inactive)	> 30 µM (inactive)	> 30 µM (inactive)	> 30 µM (inactive)		> 30 µM (inactive)	> 30 µM (inactive)	> 30 µM (inactive)	> 30 µM (inactive)	> 30 µM (inactive)
CN1CCN(CCOc2cc(OC3CCOCC3)c3c(Nc4c(Cl)ccc5c4OCO5)ncnc3c2)CC1 [SARACATINIB]	1.38 µM (active)	> 30 µM (inactive)	> 30 µM (inactive)	> 30 µM (inactive)	2.38 µM (active)	> 30 µM (inactive)	> 30 µM (inactive)	> 30 µM (inactive)	> 30 µM (inactive)	1.77 µM (active)	> 30 µM (inactive)	> 30 µM (inactive)		> 30 µM (inactive)
CO[C@H]1C[C@@H]2CC[C@@H](C)[C@@](O)(O2)C(=O)C(=O)N2CCCC[C@H]2C(=O)O[C@H]([C@H](C)C[C@@H]2CC[C@@H](O)[C@H](OC)C2)CC(=O)[C@H](C)/C=C(\C)[C@@H](O)[C@@H](OC)C(=O)[C@H](C)C[C@H](C)/C=C/C=C/C=C/1C [SIROLIMUS]	> 30 µM (inactive)	> 30 µM (inactive)	> 30 µM (inactive)	> 30 µM (inactive)	> 30 µM (inactive)	> 30 µM (inactive)	> 30 µM (inactive)	> 30 µM (inactive)		> 30 µM (inactive)	> 30 µM (inactive)	> 30 µM (inactive)	> 30 µM (inactive)	> 30 µM (inactive)
O=C1NC(=O)[C@@H](c2cn3c4c(cccc24)CCC3)[C@@H]1c1c[nH]c2ccccc12 [TIVANTINIB]	> 30 µM (inactive)	> 30 µM (inactive)	> 30 µM (inactive)	> 30 µM (inactive)	> 30 µM (inactive)	> 30 µM (inactive)	> 30 µM (inactive)	> 30 µM (inactive)		> 30 µM (inactive)	> 30 µM (inactive)	> 30 µM (inactive)	> 30 µM (inactive)	> 30 µM (inactive)
